Source: patent US20250188044A1 (HARBIN MEDISAN PHARMACEUTICAL CO., LTD., priority 2021, published 2025)
Read-outs that look alike come from different tables or passages of the source.

What was measured:
Format in all cases: cell-based
PPARδ = target: T1, PPARδ (Homo sapiens, UniProt Q03181); assay: Gal4-PPARδ(LBD) reporter gene agonistic activity assay in Cos-7 cells; settings: for EC50: Cos-7 cells, Gal4-PPARδ(LBD) reporter, 16 h, 100% = GW501516 10 nM
T1 construct: expressed in transfected cells; host or cells: Cos-7
T1 sequence (Q03181 139-441 limits assumed): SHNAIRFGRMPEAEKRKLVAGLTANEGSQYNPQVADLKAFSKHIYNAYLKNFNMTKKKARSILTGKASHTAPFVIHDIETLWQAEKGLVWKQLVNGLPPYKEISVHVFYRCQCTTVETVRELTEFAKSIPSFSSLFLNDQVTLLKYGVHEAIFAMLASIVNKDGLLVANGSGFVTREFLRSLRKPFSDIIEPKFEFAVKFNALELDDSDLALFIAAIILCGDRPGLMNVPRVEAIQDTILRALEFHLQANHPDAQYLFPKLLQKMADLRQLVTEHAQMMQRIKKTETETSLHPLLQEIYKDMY
Method: (§1) Cos-7 cells (African green monkey kidney fibroblasts, commonly used tool cells) were cultured in a 10 cm cell culture dish in a DMEM complete medium containing 10% fetal bovine serum. When the cells grew to a density of about 70%, the medium was replaced with a fresh medium for later transfection. […] The plasmid working solution was then added to the cell culture dish for cell transfection. […] Test compounds were prepared into appropriate test concentrations with a complete medium and then added to the 96-well plate. […] 10 μL of lysate was pipetted into a white opaque 384-well plate, and then 10 μL of reporter gene assay buffer (purchased from Shanghai Beyotime Biological Tech. Co., Ltd.) was added. The bioluminescence was detected by using a multimode microplate reader, and the corresponding half maximal effective concentration (EC50) value was calculated according to the detection value.

PPARα = target: T2, PPARα (Homo sapiens, UniProt Q07869); assay: Gal4-PPARα(LBD) reporter gene agonistic activity assay in Cos-7 cells; settings: for EC50: Cos-7 cells, Gal4-PPARα(LBD) reporter, 16 h, 100% = GW7647 10 nM
T2 construct: hPPARα (279aa-580aa); expressed in transfected cells; host or cells: Cos-7
T2 sequence (Q07869 167-468 limits assumed): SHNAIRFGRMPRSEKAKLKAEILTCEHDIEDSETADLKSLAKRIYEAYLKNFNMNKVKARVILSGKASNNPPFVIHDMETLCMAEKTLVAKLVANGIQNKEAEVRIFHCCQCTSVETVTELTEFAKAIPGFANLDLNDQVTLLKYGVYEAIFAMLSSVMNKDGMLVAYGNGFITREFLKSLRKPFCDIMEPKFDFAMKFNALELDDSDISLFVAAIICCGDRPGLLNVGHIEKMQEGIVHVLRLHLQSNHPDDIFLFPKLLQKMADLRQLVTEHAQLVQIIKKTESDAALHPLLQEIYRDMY
Method: as §1

PPARγ = target: T3, PPARγ (Homo sapiens, UniProt P37231); assay: Gal4-PPARγ(LBD) reporter gene agonistic activity assay in Cos-7 cells
T3 construct: hPPARγ (281aa-554aa); expressed in transfected cells; host or cells: Cos-7
T3 sequence (P37231 232-505 limits assumed): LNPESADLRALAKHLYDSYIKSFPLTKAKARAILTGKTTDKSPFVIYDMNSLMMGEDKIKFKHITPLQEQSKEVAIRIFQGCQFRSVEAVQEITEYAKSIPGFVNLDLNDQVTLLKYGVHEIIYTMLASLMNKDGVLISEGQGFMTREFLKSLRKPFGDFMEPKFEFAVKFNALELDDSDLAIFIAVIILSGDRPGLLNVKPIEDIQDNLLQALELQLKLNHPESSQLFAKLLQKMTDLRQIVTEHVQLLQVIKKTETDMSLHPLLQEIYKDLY
Method: as §1

[1] = Cos-7 cells, Gal4-PPARγ(LBD) reporter, 16 h, 100% = Rosiglitazone 1 μM

Row | Compound | EC50 (PPARδ) [nM] | EC50 (PPARα) [nM] | EC50 (PPARγ; [1]) [nM] | agonistic activity for PPARδ (EC50 level, in words) (PPARδ; Cos-7 reporter assay) | agonistic activity for PPARα (EC50 level, in words) (PPARα; Cos-7 reporter assay) | EC50 (PPARγ) [nM]
1 | Cc1cc(Cn2ncn(-c3ccc(Cl)cc3)c2=O)cc(C)c1OC(C)(C)C(=O)O [Compound 67, 2-(4-((4-(4-Chlorophenyl)-5-oxo-4,5-dihydro-1H-1,2,4-triazol-1-yl)methyl)-2,6-dimethylphenoxy)-2-methylpropionic acid] | 47 | 167 | 1830 | – | – | –
2 | CC(C)(Oc1ccc(Cn2ncn(-c3ccc(OC(F)(F)F)cc3)c2=O)cc1C(F)(F)F)C(=O)O [Compound 157, 2-Methyl-2-(4-((5-oxo-4-(4-(trifluoromethoxy)phenyl)-4,5-dihydro-1H-1,2,4-triazol-1-yl)methyl)-2-(trifluoromethyl)phenoxy)propionic acid] | – | 273 | 1660 | – | – | –
3 | CC(C)(Oc1ccc(Cn2ncn(-c3ccc(OC(F)(F)F)cc3)c2=O)cc1OC(F)(F)F)C(=O)O [Compound 103, 2-Methyl-2-(4-((5-oxo-4-(4-(trifluoromethoxy)phenyl)-4,5-dihydro-1H-1,2,4-triazol-1-yl)methyl)-2-(trifluoromethoxy)phenoxy)propionic acid] | 278 | 215 | 4680 | – | – | –
4 | CCc1cc(Cn2ncn(-c3ccc(OC(F)(F)F)cc3)c2=O)cc(CC)c1OC(C)(C)C(=O)O [Compound 189, 2-(2,6-Diethyl-4-((5-oxo-4-(4-(trifluoromethoxy)phenyl)-4,5-dihydro-1H-1,2,4-triazol-1-yl)methyl)phenoxy)-2-methylpropionic acid] | 42 | 59 | – | at nanomolar levels | at nanomolar levels | 2190
5 | Cc1cc(Cn2ncn(-c3ccc(OC(F)(F)F)cc3)c2=O)ccc1OC(C)(C)C(=O)O [Compound 79, 2-Methyl-2-(2-methyl-4-((5-oxo-4-(4-(trifluoromethoxy)phenyl)-4,5-dihydro-1H-1,2,4-triazol-1-yl)methyl)phenoxy)propionic acid] | 620 | 341 | 1880 | – | – | –
6 | CC(C)(Oc1ccc(Cn2ncn(-c3ccc(OC(F)(F)F)cc3)c2=O)cc1Cl)C(=O)O [Compound 105] | 323 | 172 | 4920 | – | – | –
7 | Cc1ccc(-n2cnn(Cc3cc(C)c(OC(C)(C)C(=O)O)c(C)c3)c2=O)cc1 [Compound 65, 2-(2,6-Dimethyl-4-((5-oxo-4-(p-tolyl)-4,5-dihydro-1H-1,2,4-triazol-1-yl)methyl)phenoxy)-2-methylpropionic acid] | 248 | 180 | 955 | – | – | –
8 | COc1ccc(-n2cnn(Cc3cc(C)c(OC(C)(C)C(=O)O)c(C)c3)c2=O)cc1 [Compound 107, 2-(4-((4-(4-Methoxyphenyl)-5-oxo-4,5-dihydro-1H-1,2,4-triazol-1-yl)methyl)-2,6-dimethylphenoxy)-2-methylpropionic acid] | 278 | 144 | 2020 | – | – | –
9 | CC(C)(Oc1ccc(Cn2ncn(-c3ccc(C(F)(F)F)cc3)c2=O)cc1Cl)C(=O)O [Compound 125, 2-(2-Chloro-4-((5-oxo-4-(4-(trifluoromethyl)phenyl)-4,5-dihydro-1H-1,2,4-triazol-1-yl)methyl)phenoxy)-2-methylpropionic acid] | 229 | 162 | 2780 | – | – | –
10 | Cc1cc(Cn2ncn(-c3ccccc3)c2=O)cc(C)c1OC(C)(C)C(=O)O [Compound 63, 2-(2,6-Dimethyl-4-((5-oxo-4-phenyl-4,5-dihydro-1H-1,2,4-triazol-1-yl)methyl)phenoxy)-2-methylpropionic acid] | – | 1030 | – | – | – | 8650
